11 compounds from US20230102554A1 (GB002, INC., priority 2019, published 2023) can be followed below.

Experiment [1] has as its target T1, Human PDGFRα, cytoplasmic domain (GST-PDGFRα) (Homo sapiens, UniProt P16234).
T1 construct: made in house
Put plainly: Human PDGFRα biochemical inhibition assay (off-chip Mobility Shift Assay).

In experiment [2] the target is T2, Human PDGFRβ, cytoplasmic domain (GST-PDGFRβ) (Homo sapiens, UniProt P09619).
T2 construct: made in house
Nature of the experiment: Human PDGFRβ biochemical inhibition assay (off-chip Mobility Shift Assay). In short, it runs like this: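 GST-tagged cytoplasmic domain (aa 557-1106) from baculovirus was incubated 1 h at room temperature with compound, CSKtide, ATP at Km and Mg²⁺ in HEPES buffer, pH 7.5. Phosphorylated and unphosphorylated peptide were separated by off-chip mobility shift, and the product ratio P/(P+S) gave percent inhibition.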

T2 sequence (P09619 with tags, fused parts or gaps): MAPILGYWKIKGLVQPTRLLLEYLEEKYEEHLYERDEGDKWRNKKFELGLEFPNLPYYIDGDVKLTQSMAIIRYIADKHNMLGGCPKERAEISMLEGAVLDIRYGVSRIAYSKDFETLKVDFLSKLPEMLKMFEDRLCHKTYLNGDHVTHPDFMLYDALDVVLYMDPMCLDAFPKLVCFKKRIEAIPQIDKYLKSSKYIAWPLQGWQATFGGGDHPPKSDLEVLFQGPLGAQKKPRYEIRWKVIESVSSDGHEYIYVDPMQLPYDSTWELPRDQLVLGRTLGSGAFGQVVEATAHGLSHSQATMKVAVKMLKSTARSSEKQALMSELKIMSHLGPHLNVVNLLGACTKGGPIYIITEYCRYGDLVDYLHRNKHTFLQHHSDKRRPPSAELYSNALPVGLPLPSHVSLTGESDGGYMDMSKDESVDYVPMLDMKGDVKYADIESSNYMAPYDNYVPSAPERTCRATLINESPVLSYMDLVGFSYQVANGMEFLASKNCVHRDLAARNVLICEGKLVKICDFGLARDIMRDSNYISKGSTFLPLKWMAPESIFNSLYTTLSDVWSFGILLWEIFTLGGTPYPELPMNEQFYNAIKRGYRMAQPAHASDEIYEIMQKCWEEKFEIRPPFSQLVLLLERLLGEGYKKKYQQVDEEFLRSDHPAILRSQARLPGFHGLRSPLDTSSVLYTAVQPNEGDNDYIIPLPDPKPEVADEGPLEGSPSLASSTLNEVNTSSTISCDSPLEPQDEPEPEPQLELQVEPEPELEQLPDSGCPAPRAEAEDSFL
T1 sequence (P16234 550-1089 T674I): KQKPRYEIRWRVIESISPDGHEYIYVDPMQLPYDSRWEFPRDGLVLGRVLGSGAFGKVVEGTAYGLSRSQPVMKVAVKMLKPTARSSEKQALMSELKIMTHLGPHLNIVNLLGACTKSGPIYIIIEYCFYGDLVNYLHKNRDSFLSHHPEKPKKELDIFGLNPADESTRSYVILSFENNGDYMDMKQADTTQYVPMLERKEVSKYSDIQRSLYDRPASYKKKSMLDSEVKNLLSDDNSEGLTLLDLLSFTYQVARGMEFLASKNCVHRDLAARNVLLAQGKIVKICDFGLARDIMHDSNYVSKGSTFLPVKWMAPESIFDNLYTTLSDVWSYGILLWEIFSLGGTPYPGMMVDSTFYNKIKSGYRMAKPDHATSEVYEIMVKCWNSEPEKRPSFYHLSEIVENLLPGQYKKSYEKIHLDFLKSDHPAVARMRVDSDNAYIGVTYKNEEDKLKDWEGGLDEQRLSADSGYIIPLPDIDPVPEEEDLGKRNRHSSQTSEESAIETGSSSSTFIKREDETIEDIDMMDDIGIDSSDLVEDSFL

As a reminder, the IC50 is the concentration needed to halve the response being measured. `CCn1cc2ncc(N[C@@H](C)c3cccc(NC(=O)c4ccc(N(C)C)c(C)c4)c3)nc2n1` [Compound 384, (S)-4-(dimethylamino)-N-(3-(1-((2-ethyl-2H-pyrazolo[3,4-b]pyrazin-6-yl)amino)ethyl)phenyl)-3-methylbenzamide]: the IC50 in experiment [1] and in experiment [2] was less than 300 nM throughout.

As for `Cc1c[nH]c2ncc(N[C@@H](C)c3cccc(NC(=O)c4cncc(C(F)F)c4)c3)nc12` [Compound 556, (S)-5-(difluoromethyl)-N-(3-(1-((7-methyl-5H-pyrrolo[2,3-6]pyrazin-2-yl)amino)ethyl)phenyl)nicotinamide], the IC50 in experiment [1] and in experiment [2] was less than 300 nM each time.

As to `C[C@H](Nc1cnc2cnn(C)c2n1)c1cccc(NC(=O)c2ccc(C(F)(F)F)nc2)c1` [Compound 115, (S)-N-(3-(1-((1-methyl-1H-pyrazolo[3,4-b]pyrazin-6-yl)amino)ethyl)phenyl)-6-(trifluoromethyl)nicotinamide], the IC50 in experiment [1] and in experiment [2] was less than 300 nM in each case.

On to `CCn1cc2ncc(N[C@@H](C)c3cccc(NC(=O)Cc4ccc(Cl)cn4)c3)nc2n1` [Compound 681, (S)-2-(5-chloropyridin-2-yl)-N-(3-(1-((2-ethyl-2H-pyrazolo[3,4-b]pyrazin-6-yl)amino)ethyl)phenyl)acetamide], for which the results for the IC50 in experiment [1] and in experiment [2] were less than 300 nM and not below 1000 nM, respectively.

As to `CCOc1ccc(C(=O)Nc2cccc([C@H](C)Nc3cnc4[nH]cc(C)c4n3)c2)cn1` [Compound 570, (S)-6-ethoxy-N-(3-(1-((7-methyl-5H-pyrrolo[2,3-b]pyrazin-2-yl)amino)ethyl)phenyl)nicotinamide], the IC50 in experiment [1] and in experiment [2] was less than 300 nM in each case.

Consider `Cc1cncc(C(=O)Nc2cccc([C@H](C)Nc3cnc4[nH]ncc4n3)c2)c1` [Compound 529, (S)-N-(3-(1-((1H-pyrazolo[3,4-b]pyrazin-5-yl)amino)ethyl)phenyl)-5-methylnicotinamide], for which the concentration for half-maximal inhibition (IC50) in experiment [1] and in experiment [2] was less than 300 nM each time.

For `CCn1cc2ncc(N[C@@H](C)c3cccc(NC(=O)c4cnc(C)c(C)c4)c3)nc2n1` [Compound 328, (S)-N-(3-(1-((2-ethyl-2H-pyrazolo[3,4-b]pyrazin-6-yl)amino)ethyl)phenyl)-5,6-dimethylnicotinamide], the IC50 in experiment [1] and in experiment [2] was less than 300 nM throughout.

`CCn1cc2ncc(N[C@@H](C)c3cc(NC(=O)c4cc(C)c(CN5CC[C@@H](O)C5)c(F)c4)ccc3C)nc2n1` [Compound 527, N-(3-((S)-1-((2-ethyl-2H-pvrazolo[3,4-b]pyrazin-6-yl)amino)ethyl)-4-methylphenyl)-3-fluoro-4-(((R)-3-hydroxypyrrolidin-1-yl)methyl)-5-methylbenzamide]: the IC50 in experiment [1] and in experiment [2] was less than 300 nM throughout.

With `CCn1cc2ncc(N[C@@H](C)c3cc(NC(=O)c4cnc(NC5CC5)c(C)c4)ccc3C)nc2n1` [Compound 515, (S)-6-(cyclopropylamino)-N-(3-(1-((2-ethyl-2H-pyrazolo[3,4-b]pyrazin-6-yl)amino)ethyl)-4-methylphenyl)-5-methylnicotinamide], the IC50 in experiment [1] and in experiment [2] was less than 300 nM throughout.

On to `CCn1cc2ncc(N[C@@H](C)c3cccc(NC(=O)c4ccc(N5CCN(C(=O)OC(C)(C)C)CC5)nc4)c3)nc2n1` [Compound 378, tert-butyl (S)-4-(5-((3-(1-((2-ethyl-2H-pyrazolo[3,4-b]pyrazin-6-yl)amino)ethyl)phenyl)carbamoyl)pyridin-2-yl) piperazine-1-carboxylate], for which the values for the concentration for half-maximal inhibition (IC50) in experiment [1] and in experiment [2] were less than 300 nM and 300 to 1000 nM, respectively.

Turning to `CCn1cc2ncc(N[C@@H](C)c3cc(NC(=O)Cc4cncc(C)c4)ccc3C)nc2n1` [Compound 666, (S)-N-(3-(1-((2-ethyl-2H-pyrazolo[3,4-b]pyrazin-6-yl)amino)ethyl)-4-methylphenyl)-2-(5-methylpyridin-3-yl) acetamide], the IC50 in experiment [1] and in experiment [2] was less than 300 nM in each case.
